Series [1] can be described thus: Weight percent of compound 1001 loaded into mixed nanomicelles (entrapment, RP-HPLC). The format is physicochemical. The note with it: solvent evaporation, HCO-60 4 wt %, Octoxynol-40 0.01 wt %. The procedure: To determine the entrapment efficiency of the formulation, all the prepared formulations were subjected to entrapment efficiency test. Briefly, formulations were vortex mixed for homogeneity and 1 mL was transferred to a fresh (1.5 mL) eppendorf tube. Each formulation was lyophilized to obtain a solid at the bottom of eppendorf tube. The obtained solid was suspended in 1 mL of organic solvent (diethyl ether) to generate reverse micelles and release the drug into the external organic solvent. The organic solvent was evaporated overnight in speed vacuum. The resultant reversed micelles were resuspended in 1 mL of 2-propanol (dilution factor was taken into account) and further diluted to determine the concentration of compound 1001 entrapped in each micellar preparation with HPLC. The entrapment efficiency of the formulation was calculated with the following formula (wherein MNF=Mixed Nanomicellar Formulation): […]
In vitro analysis of compound 1001 was performed by a reversed phase high performance liquid chromatography (RP-HPLC) method with a Shimadzu HPLC pump (Shimadzu, Shimadzu Scientific instruments, Columbia, Md.), Alcott autosampler (model 718 AL), Shimadzu UV/Visible detector (Shimadzu, SPD-20A/20AV, USA), ODS column (5 μm, 150×4.6 mm) thermostated at 40°±1 C and Hewlett Packard HPLC integrator (Hewlett Packard, Palo Alto, Calif.). The mobile phase was comprised of methanol (MeOH), water and trifluoroacetic acid (TFA) (70:30:0.05% v/v) which was set at a flow rate of 0.5 mL/min. Detection wavelength was set at 272 nm. The sample tray temperature was maintained at 4° C. Calibration curve (0.5 to 5 μg/mL) for compound 1001 was prepared by making appropriate dilutions from the stock solution in 2-propanol. An injection volume of 10 μl was injected into the HPLC column for analysis. All the standards and samples prepared were stored at 4° C. before and during the analysis.
Mixed nanomicellar formulation encapsulating compound 1001 was prepared by solvent evaporation method in two steps: 1) Preparation of basic formulation and 2) rehydration. In step one, compound 1001, HCO-60 and octoxynol-40 were dissolved separately in 0.3 mL of ethyl acetate. These three solutions were mixed together in 15-mL centrifuge tube. The resultant mixture was vortexed to obtain a homogenous solution. Ethyl acetate solvent was removed with speed vacuum to obtain a solid thin film. The residue was kept overnight under high vacuum at room temperature to remove residual organic solvent. In step two, the resultant thin film was hydrated with 1 mL of double distilled deionized water by vortexing the solution. The rehydrated formulation was suspended in 2× phosphate buffer solution, (pH 6.5). It was filtered through 0.2 μm nylon filter membrane to remove the unentrapped drug aggregates and other foreign particulates. The entrapment of compound 1001 was determined by RP-HPLC following disruption of the micelles and solubilization of 1001 in the diluent (2-propanol) as described below
(§1) Weight percent of drug loaded into MNF was determined following the method for entrapment efficiency. Size and polydispersity index of the formulations was determined with Malvern zetasizer as described above. The formulations appear clear and have small size and narrow size distribution.

The nature of series [2]: Mixed nanomicellar size and polydispersity index (Zetasizer). The format is physicochemical. The note with it: solvent evaporation; HCO-60 4 wt %, Octoxynol-40 0.01 wt %, 1001 initially added 0.120 wt %. On the procedure: The formulation size and polydispersity index were determined with Zetasizer, Malvern Instruments, NJ. In brief, approximately 1 ml of each formulation was transferred to a cuvette and placed in the instrument. A laser beam of light was used to determine the mixed nanomicellar size.
as §1

Series [3] can be described thus: Ocular tissue distribution of compound 1001 nanomicellar formulations (LC-MS/MS). Conditions: rabbits, topical ocular administration. The format is in vivo, New Zealand White Rabbits. The procedure: A study was conducted in rabbits to test the tolerance and ocular tissue distribution of two nanomicellar formulations of compound 1001 (RX10045) against matching placebos (Table 6a and 6b) and balanced saline solution (BSS). Healthy New Zealand female white rabbits (2-3 kg) were used for this study. One drop (approximately 35 μL) of study drug was applied o.d. 4×/day at two hour intervals for 5 days. One drop of BSS was applied to the contralateral eye.
Selected ocular fluids/tissues (aqueous humor, vitreous humor, conjunctiva, cornea, iris-ciliary body, lens, retina/choroid, and sclera) collected from two rabbits each in the RX-10045 (0.15% in HCO-60, 0.1% in HCO-40) treatment groups, and from one rabbit in each of the matching placebo groups, were assayed for compound 1001 and another resolvin by liquid chromatography-tandem mass spectrometry (LC-MS/MS). Warfarin-d5 and 5-HDA were used as internal standards for the analysis of RX-10045 and its active metabolite, RX-10008, respectively, in aqueous humor and vitreous humor. For the other ocular tissues (solid tissues), warfarin-d5 and phenyl acetic acid-d5 (PAA-d5) were used as the internal standards for compound 1001 and RX-10008, respectively. The analytical range for the solid tissues were 0.125-100 ng. The results of the solid tissue analyses were converted to ng/g by correcting for the amount of tissue analyzed.

SMILES strings stand for the structures.

As for `C#CC[C@@H](O)/C=C/C=C/C#C[C@@H](O)CCCC(=O)OC(C)C` [compound 1001], the “1001 (loaded in mixed micelles) wt %” value stood at 0.033 wt % in series [1] (1001 initially added 0.035 wt %); 0.065 wt % in series [1] (1001 initially added 0.070 wt %); 0.084 wt % in series [1] (1001 initially added 0.095 wt %); 0.11 wt % in series [1] (1001 initially added 0.120 wt %); 0.26 wt % in series [1] (1001 initially added 0.250 wt %); 0.32 wt % in series [1] (1001 initially added 0.300 wt %). The “1001 (loaded in mixed micelles) wt %” value in series [1] (1001 initially added 0.400 wt %) was 0.45 wt %. In addition, the “Polydispersity Index” value in series [2] came to 0.320. The “Hydrolysis to active metabolite RX-10008 in ocular tissues” value in series [3] is listed as “rapidly hydrolyzed”.

Source of the values: patent publication US9937225B2, “Topical formulations and uses thereof” (OCULAR TECHNOLOGIES SARL, priority 2012, dated 2018).
